“And” between values parts separate entries of the source, which are not always exact repeats. Equal entries are not always repeated. The source made the active and inactive calls. No cut-off for these calls is given here.

Experiment [1] has as its system Bacillus anthracis. Nature of the experiment: Antibiotic activity against Bacillus anthracis assessed as reduction in bacterial growth by Alamar Blue dye based CLSI broth microdilution method. Type of experiment: functional.
The test system of experiment [2] is Streptococcus pyogenes. Description: Antibiotic activity against Streptococcus pyogenes assessed as reduction in bacterial growth by Alamar Blue dye based CLSI broth microdilution method. The class given is functional. (Resazurin is reduced to fluorescent resorufin, in cell work by metabolically active cells.)
Experiment [3] has as its system Nakaseomyces glabratus. Nature of the experiment: Antibiotic activity against Candida glabrata assessed as reduction in fungal growth by Alamar Blue dye based CLSI broth microdilution method. Type of experiment: functional.
Experiment [4] concerns Candida albicans. Nature of the experiment: Antibiotic activity against Candida albicans assessed as reduction in fungal growth by Alamar Blue dye based CLSI broth microdilution method. Type of experiment: functional.
The subject of experiment [5] is Bacillus subtilis. Nature of the experiment: Antibiotic activity against Bacillus subtilis ATCC 6633 assessed as reduction in bacterial growth by Alamar Blue dye based CLSI broth microdilution method. Type of experiment: functional.
Experiment [6] deals with Staphylococcus aureus. Description: Antibiotic activity against Staphylococcus aureus ATCC 13709 assessed as reduction in bacterial growth by Alamar Blue dye based CLSI broth microdilution method. The class given is functional.
In experiment [7] the test system is Escherichia coli. Description: Antibiotic activity against Escherichia coli ATCC 25922 assessed as reduction in bacterial growth by Alamar Blue dye based CLSI broth microdilution method. Type of experiment: functional, organism-based.
In experiment [8] the test system is Pseudomonas aeruginosa. Description: Antibiotic activity against Pseudomonas aeruginosa assessed as reduction in bacterial growth by Alamar Blue dye based CLSI broth microdilution method. The class given is functional, organism-based.
Experiment [9] relates to Klebsiella pneumoniae. Nature of the experiment: Antibiotic activity against Klebsiella pneumoniae ATCC 10031 assessed as reduction in bacterial growth by Alamar Blue dye based CLSI broth microdilution method. Type of experiment: functional, organism-based.
The test system of experiment [10] is Staphylococcus aureus. Nature of the experiment: Antibiotic activity against multidrug-resistant Staphylococcus aureus NE277 assessed as reduction in bacterial growth by Alamar Blue dye based CLSI broth microdilution method. The class given is functional, organism-based.
In experiment [11] the test system is Staphylococcus aureus. Description: Antibiotic activity against multidrug-resistant Staphylococcus aureus CAIRD148 assessed as reduction in bacterial growth by Alamar Blue dye based CLSI broth microdilution method. Type of experiment: functional, organism-based.
Experiment [12] has as its system Staphylococcus aureus. Nature of the experiment: Antibiotic activity against multidrug-resistant Staphylococcus aureus CAIRD142 assessed as reduction in bacterial growth by Alamar Blue dye based CLSI broth microdilution method. The class given is functional, organism-based.
Experiment [13] deals with Staphylococcus aureus. Nature of the experiment: Antibiotic activity against multidrug-resistant Staphylococcus aureus CAIRD116 assessed as reduction in bacterial growth by Alamar Blue dye based CLSI broth microdilution method. The class given is functional, organism-based.

For `C[C@@H]1CCCCCCCCC[C@H](O)[C@H](OC(=O)CCC(=O)O)/C=C/C(=O)O1`, the MIC (commonly the lowest concentration that inhibits growth of the organism) in [1] is 250 µM and > 90 µg/mL; in experiment [2], > 250 µM and > 90 µg/mL; in [3] it was > 250 µM and > 90 µg/mL; in experiment [4], > 250 µM and > 90 µg/mL; in experiment [5], 125 µM and 45 µg/mL; in [6], 125 µM and 45 µg/mL.
For the molecule `C[C@@H]1CCCCCCCCC[C@H](OC(=O)CCC(=O)O)[C@H](O)/C=C/C(=O)O1`, the MIC in experiment [1] was > 250 µM and > 90 µg/mL; in experiment [2], > 250 µM and > 90 µg/mL; in experiment [3], > 250 µM and > 90 µg/mL; in experiment [4], > 250 µM and > 90 µg/mL; in [5] it was > 250 µM and > 90 µg/mL; in [6], 125 µM and 45 µg/mL.
Regarding `C[C@@H]1CCCCCCCCC[C@H](O)[C@H](O)/C=C/C(=O)O1`, the minimal inhibitory concentration (MIC) is 250 µM and > 71 µg/mL in experiment [1]; > 250 µM and > 71 µg/mL in experiment [2]; > 250 µM and > 71 µg/mL in experiment [3]; > 250 µM and > 71 µg/mL in experiment [4]; > 250 µM and > 71 µg/mL in experiment [5]; 250 µM and 71 µg/mL in [6].
With `C[C@@H](O)CCCCCCCCC[C@H](O)[C@H]1CCC(=O)O1`, the MIC was > 500 µM and > 143 µg/mL in [1]; 16 µM and 5 µg/mL in experiment [2]; > 500 µM and > 143 µg/mL in [3]; > 500 µM and > 143 µg/mL in [4]; > 500 µM and > 143 µg/mL in experiment [5]; 500 µM and 143 µg/mL in [6]. For the same molecule, the result in experiment [7], in [8] and in [9] was inactive.
Take `C[C@@H]1CCCCCCCCC[C@H](OC(=O)CCC(=O)O)C(=O)/C=C/C(=O)O1`: the minimal inhibitory concentration (MIC) in experiment [1] is 16 µM and 6 µg/mL; in experiment [2], 125 µM and 48 µg/mL; in experiment [3], 125 µM and 48 µg/mL; in experiment [4], 250 µM and 96 µg/mL; in experiment [5], 32 µM and 12 µg/mL; in experiment [6], 8 µM and 3 µg/mL. Moreover, the outcome in experiment [10], in [11], in experiment [12] and in experiment [13] was Active.
Turning to `C[C@@H]1CCCCCCCCC[C@H](OC(=O)CCC(=O)O)[C@H](O)CCC(=O)O1`, the minimum inhibitory concentration (MIC) was > 500 µM and > 45 µg/mL in experiment [1]; > 500 µM and > 45 µg/mL in experiment [2]; > 500 µM and > 45 µg/mL in [3]; > 500 µM and > 45 µg/mL in experiment [4]; > 500 µM and > 45 µg/mL in experiment [5]; > 500 µM and > 45 µg/mL in experiment [6]. The result in [7], in experiment [8] and in experiment [9] was inactive.
With `C[C@@H]1CCC(O)CCCCCC[C@H](OC(=O)CCC(=O)O)C(=O)/C=C/C(=O)O1` (some centres undefined), the MIC in experiment [1] was 64 µM and 26 µg/mL; in experiment [2], 250 µM and 100 µg/mL; in [3] it was > 500 µM and > 200 µg/mL; in [4], > 500 µM and > 200 µg/mL; in experiment [5] it was 125 µM and 50 µg/mL; in [6], 32 µM and 13 µg/mL. For the same molecule, the result in experiment [10], in experiment [11], in experiment [12] and in experiment [13] was Active.
With `C[C@@H]1CCCCCCCCCC[C@H](O)/C=C/C(=O)O1`, the MIC in experiment [1] was 125 µM and > 67 µg/mL; in experiment [2] it was 250 µM and 67 µg/mL; in [3] it was > 250 µM and > 67 µg/mL; in [4], > 250 µM and > 67 µg/mL; in [5], 125 µM and 33 µg/mL; in experiment [6] it was 125 µM and 33 µg/mL.
For the molecule `COC(=O)[C@]12C(=O)[C@]3(C)O[C@](C)(C=C4[C@]5(C=O)CC[C@H](OC(C)=O)C(C)(C)[C@H]5CC[C@@]41C)[C@@]2(C)C3=O`, the MIC was 125 µM and 62 µg/mL in experiment [1]; > 500 µM and > 248 µg/mL in experiment [3]; > 500 µM and > 248 µg/mL in experiment [4]; 250 µM and 124 µg/mL in experiment [5]; 125 µM and 62 µg/mL in experiment [6]. Besides, the result in [7], in experiment [8] and in experiment [9] was inactive.
For the molecule `C[C@@H](O)CCCCCCCCC[C@H](OC(=O)CCC(=O)O)[C@H]1CCC(=O)O1`, the MIC in experiment [1] is > 500 µM and 193 µg/mL; in experiment [2], > 500 µM and 193 µg/mL; in experiment [3], 500 µM and 193 µg/mL; in experiment [4] it was 125 µM and 48 µg/mL; in experiment [5], 500 µM and 193 µg/mL; in experiment [6], 500 µM and 193 µg/mL. The outcome in experiment [7], in experiment [8] and in experiment [9] was inactive.

For the origin of these results see ChEMBL document CHEMBL4840376, “Berkeleylactones and a Citreohybriddione Analogue from Penicillium turbatum” (2021).
